Results from patent publication US20240011034A1, “INHIBITION OF miR-29b-3p TO ENHANCE NEURONAL SURVIVAL IN HUNTINGTON'S DISEASE” (Washington University, priority 2022, published 2024).

Assays:
[1] = tested on: p62/SQSTM1; test: p62/SQSTM1 immunostaining and immunoblot; type: cell-based, human; settings: 0.5 μM vs DMSO, PID26
Method: (§1) Reprogrammed cells were fixed with 4% paraformaldehyde (Electron Microscopy Sciences, #15710) for 20 min at room temperature (RT), and permeabilized with 0.2% Triton X-100 for 10 min at RT. Cells were blocked with 5% BSA and 1% goat serum in PBS and incubated with primary antibodies at 4° C. overnight, then incubated with secondary antibodies for 1 hr at RT. Cells were incubated with DAPI (Sigma, D-9542) for 5 minutes followed by washing with PBS. Images were captured using a Leica SP5X white light laser confocal system with Leica Application Suite (LAS) Advanced Fluorescence 2.7.3.9723.
Cells were lysed in 2% SDS buffer. The concentrations of whole-cell lysates were measured using the Pierce BCA protein assay kit (Thermo Scientific, #23227). […]
First, tandem monomeric mCherry-GFP-tagged LC3, previously shown to distinguish prefusion autophagic compartments from mature acidic autolysosomes based on the differential pH sensitivity of GFP versus mCherry, was used. […] CYTO-ID assay, a fluorescence-based live-cell assay for accumulated autophagic vacuoles, and immunostaining of p62/SQSTM1, a marker widely used to monitor autophagic activity due to its binding to LC3 and degradation during autophagy, were further performed. […]

[2] = tested on: reprogrammed MSNs; test: CYTO-ID assay for accumulated autophagic vacuoles; type: cell-based, human; settings: 0.5 μM vs DMSO, PID26
Description: First, tandem monomeric mCherry-GFP-tagged LC3, previously shown to distinguish prefusion autophagic compartments from mature acidic autolysosomes based on the differential pH sensitivity of GFP versus mCherry, was used. […] CYTO-ID assay, a fluorescence-based live-cell assay for accumulated autophagic vacuoles, and immunostaining of p62/SQSTM1, a marker widely used to monitor autophagic activity due to its binding to LC3 and degradation during autophagy, were further performed. […] The difference in p62 between pre-HD-MSNs and HD-MSNs was also validated by immunoblot assay (FIG. 3I). Because caspase activation has been detected in HD, and cell death-related pathways (apoptosis and caspase) were enriched in the brown module, the levels of caspase activation between pre-HD-MSN and HD-MSNs were compared.

[3] = tested on: reprogrammed MSNs; test: tandem mCherry-GFP-LC3 reporter puncta quantification; type: cell-based, human; settings: HD-MSNs, 0.5 μM vs DMSO
Method: FUW mCherry-GFP-LC3 used was Addgene plasm id # 110060; http://n2t.net/addgene:110060; RRID:Addgene_110060. The concentrated lentivirus of mCherry-GFP-LC3 was added to reprogrammed MSNs at PID20. For imaging of cells expressing mCherry-GFP-LC3, cells were washed once with PBS, fixed and stained by TUBB3 antibody, after verification of expression of GFP and mCherry by microscopy at PID26. Images were captured using a Leica SP5X white light laser confocal system with Leica Application Suite (LAS) Advanced Fluorescence 2.7.3.9723. For quantification of autophagosome (i.e., mCherry+, GFP+ puncta) and autolysosome (i.e., mCherry+, GFP− puncta) compartments in MSNs from multiple HD patients and control individuals, measurements were performed in cells having at least 3 puncta per cell.

[4] = tested on: reprogrammed MSNs; test: SYTOX assay (neuronal cell death); type: cell-based, human; settings: for SYTOX-positive cells (beneficial effect): 0.5 μM vs DMSO
Method: 0.1 μM SYTOX gene nucleic acid stain (Invitrogen, S7020) and 1 μl/mL of Hoechst 33342 (Thermo Scientific, 66249) were added into cell medium. Samples were incubated for at least 30 mins at 37° C. prior to live-cell imaging. Images were taken using Leica DMI 4000B inverted microscope with Leica Application Suite (LAS) Advanced Fluorescence.

[5] = tested on: α1-antitrypsin Z variant (ATZ); test: Immunoblot of steady-state ATZ in HTO/Z cell line model of α1-antitrypsin deficiency; type: cell-based; settings: 24 hr, 0.5 and 2.5 μM vs DMSO (0.5 μM: p=0.003)
Method: FIG. 7A-7H show autophagy activator rescues HD-MSNs from degeneration. […] The normalized intensity (bottom) was calculated from immunoblot images for 0.5 μM versus DMSO control (Individual data plotted, n=4; *p=0.003 by t-test; Mean±s.e.m.). FIG. 7C show representative images of p62 and TUBB3-positive cells (top) and quantification of p62 intensity per cell (bottom) at PID26 from multiple healthy control old and HD-MSNs treated with DMSO or 0.5 μM G2-115. Each dot represents one individual's reprogrammed MSN. Scale bars is 20 μm FIG. 7D show representative images of CYTO-ID staining (top) and quantification of CYTO-ID green signals (bottom) at PID26 from multiple healthy control old and HD-MSNs treated with DMSO or 0.5 μM G2-115. Each dot represents one individual's reprogrammed MSN. Scale bar is 20 μm FIG. 7E show representative images (top) and quantification (bottom) of SYTOX-positive cells as a fraction of Hoechst-positive cells in HD-MSN treated with DMSO or different concentration of G2-115 (0.125, 0.25, or 0.5 μM) (n=4). Scale bar is 20 μm. FIG. 7F show quantification of SYTOX-positive cells from multiple healthy control old and HD-MSNs treated with DMSO or 0.5 μM G2-115. […] FIG. 7G show Representative images (left) and quantification (right) of caspase3/7 activation (green) and Annexin V signal (green) from three independent HD-MSN lines treated with DMSO or 0.5 μM G2-115. […]

[6] = tested on: HTT inclusion bodies; test: HTT inclusion bodies / mHTT aggregation by immunostaining; type: cell-based, human; settings: HD-MSNs, 0.5 μM vs DMSO, PID30
Method: as §1

[7] = tested on: reprogrammed MSNs; test: Apoptosis assay in live cells (Caspase-3/7, Annexin V); type: cell-based, human; settings: HD-MSNs, vs DMSO
Method: Reprogrammed cells grown in 96-well plates were treated with 1× Essen Bioscience IncuCyte® Caspase-3/7 Green Reagent (final concentration 5 μM) and 1× Essen Bioscience IncuCyte® Annexin V Green or Red Reagent on day 22 or 26. Image scheduling, collection, and analysis were conducted with the IncuCyte® S3 LiveCell Analysis System platform and IncuCyte S3 v2017A software. Treated plates were imaged every two hours for 7 days. At each timepoint, over 2 images were taken per well in brightfield, FITC, and TRITC channels. Images were analyzed for the number of green or red objects per well. For the apoptotic index, the number of green or red objects (i.n., fluorescence cells) divided by phase area (μm2) per well was quantified by the IncuCyte® S3 Live-Cell Analysis System.

O=c1ccc2c(Cl)cc(Cl)cc2[nH]1 [G2-115, 5,7-dichloro-1H-quinolin-2-one]
p62/SQSTM1 signal ([1]; HD-MSNs): decreased | p62/SQSTM1 signal ([1]; old Ctrl-MSNs): decreased | number of autophagic vacuoles (CYTO-ID signals) ([2]; HD-MSNs): increased | number of autophagic vacuoles (CYTO-ID signals) ([2]; old Ctrl-MSNs): increased | average number of autolysosomes [3]: increased | average number of autophagosomes [3]: increased | HD-MSN survival (reduction of SYTOX signal) ([4]; HD-MSN, 0.125, 0.25 or 0.5 μM vs DMSO, treated from PID14 every four days for 16 days): promoted HD-MSN survival in a dose-dependent manner | SYTOX-positive cells (beneficial effect) ([4]; HD-MSNs from six independent patients): consistent in HD-MSNs from six independent patients | SYTOX-positive cells (beneficial effect) ([4]; age-matched (old) Ctrl-MSNs versus HD-MSNs): specific to HD-MSNs | steady-state levels of ATZ [5]: decreased | number of HTT inclusion bodies [6]: reduced | Annexin V signal [7]: reduced | Caspase 3/7 signal [7]: reduced
